In PubChem BioAssay AID206 (DTP/NCI, 2004):
Several values for one entry are separate records, joined by “and”; a condition that tells them apart may be missing. Equal entries are not always repeated. Inconclusive results are not listed.

System: nude mice, HT29 intrarenal xenograft, tumor weight T/C
Assay: NCI In Vivo Anticancer Drug Screen. Data for tumor model HT29;CX-1 Human Adenocarcinoma (MER+) (intrarenal inoculation) in NU/NU Swiss (nude) mice
Settings: endpoint: mean tumor weight change, higher = larger tumour
Description: The antitumor activity of compounds was measured in mice bearing transplantable tumors. Survival or tumor size were measured and the results are expressed as the measurement made in the treated group (T) divided by the measurement made in the vehicle treated control group (C). The tumor model used in this assay is HT29;CX-1 Human Adenocarcinoma (MER+) (intrarenal inoculation) in NU/NU Swiss (nude) mice

[1] = dose: 100.0 mg/kg/injection, schedule: Q04DX004 (sc), vehicle: saline with Tween-80
[2] = dose: 50.0 mg/kg/injection, schedule: Q04DX004 (sc), vehicle: saline with Tween-80
[3] = dose: 200.0 mg/kg/injection, schedule: Q04DX004 (sc), vehicle: saline with Tween-80

Q: `Nc1nc(=S)c2ncn(C3CC(O)C(CO)O3)c2[nH]1` (configuration not stated) was tested. Which T/C (dose: 1.8 mg/kg/injection, schedule: Q04DX004 (sc), vehicle: saline with Tween-80) did it give?
A: Its T/C is 119 % of control.

Q: What about the T/C (dose: 3.75 mg/kg/injection, schedule: Q04DX004 (sc), vehicle: saline with Tween-80) of the same compound?
A: The T/C was 105 % of control.

Q: And the T/C (dose: 7.5 mg/kg/injection, schedule: Q04DX004 (sc), vehicle: saline with Tween-80)?
A: Its T/C is 107 % of control.

Q: And the T/C (dose: 100.0 mg/kg/injection, schedule: Q01DX010 (sc), vehicle: Klucel (hydroxypropylcellulose) (HPC))?
A: Its T/C is 114 % of control.

Q: `COc1cc([C@@H]2c3cc4c(c(O)c3C[C@H]3COC(=O)[C@@H]32)OCO4)cc(OC)c1OC` was tested. Which T/C (dose: 2.0 mg/kg/injection, schedule: Q01DX010 (sc), vehicle: saline) did it give?
A: Its T/C is 46 % of control.

Q: What about the T/C (dose: 4.0 mg/kg/injection, schedule: Q01DX010 (sc), vehicle: saline) of the same compound?
A: Its T/C is 58 % of control.

Q: What about the T/C (dose: 8.0 mg/kg/injection, schedule: Q01DX010 (sc), vehicle: saline) of the same compound?
A: Its T/C is 25 % of control.

Q: With `CN(C)CCN1C(=O)c2cccc3cc([N+](=O)[O-])cc(c23)C1=O` as the compound, how does the T/C (dose: 18.0 mg/kg/injection, schedule: Q04DX004 (sc), vehicle: saline with Tween-80) read?
A: Its T/C is 95 % of control.

Q: For `C=C(C)C(=NC(C)(C)C)Nc1ccccc1`, which T/C [1] is on record?
A: The T/C was 52 % of control.

Q: What does the source list for `CC(C)=CC(=O)OC1C2C(C)=CC(=O)C(O)C2(C)C2C3(O)OCC24C(CC(=O)OC14)C(C)C3O` (configuration not stated)?
A: T/C (dose: 1.25 mg/kg/injection, schedule: Q04DX004 (sc), vehicle: distilled water + Tween-80): 67 % of control and 76 % of control; T/C (dose: 1.25 mg/kg/injection, schedule: Q04DX004 (sc), vehicle: saline with Tween-80): 70 % of control; T/C (dose: 5.0 mg/kg/injection, schedule: Q04DX004 (sc), vehicle: saline with Tween-80): 44 % of control

Q: With `COc1cc(NCCCCCCCNC(C)C)c2nccc(C)c2c1` as the compound, how does the T/C (dose: 18.7 mg/kg/injection, schedule: Q04DX004 (sc), vehicle: saline) read?
A: Its T/C is 56 % of control.

Q: What about the T/C (dose: 37.5 mg/kg/injection, schedule: Q04DX004 (sc), vehicle: saline) of the same compound?
A: Its T/C is 85 % of control.

Q: What about the T/C (dose: 75.0 mg/kg/injection, schedule: Q04DX004 (sc), vehicle: saline) of the same compound?
A: Its T/C is 71 % of control.

Q: `Cc1cc2c(c3oc(C4(C)OC4C4OC4C)cc(=O)c13)C(=O)c1c(O)c(C3CC(C)(N(C)C)C(O)C(C)O3)cc(C3CC(N(C)C)C(O)C(C)O3)c1C2=O` (configuration not stated) was tested. Which T/C (dose: 0.13 mg/kg/injection, schedule: Q01DX010 (sc), vehicle: saline) did it give?
A: Its T/C is 50 % of control.

Q: Which T/C [2] does the source give for `ClC1=C(Cl)C(Cl)=C(Cl)C1=Cc1ccccc1` here?
A: The T/C was 104 % of control.

Q: For `C1CCC2[N-]CC3CCCCC3[N-]CC3CCCCC3[N-]CC3CCCCC3[N-]CC2C1.[Cu]` (configuration not stated), which T/C (dose: 6.25 mg/kg/injection, schedule: Q01DX010 (sc), vehicle: Klucel (hydroxypropylcellulose) (HPC)) is on record?
A: Its T/C is 35 % of control.

Q: What about the T/C (dose: 12.5 mg/kg/injection, schedule: Q01DX010 (sc), vehicle: Klucel (hydroxypropylcellulose) (HPC)) of the same compound?
A: The T/C was 49 % of control.

Q: What about the T/C (dose: 25.0 mg/kg/injection, schedule: Q01DX010 (sc), vehicle: Klucel (hydroxypropylcellulose) (HPC)) of the same compound?
A: The T/C was 54 % of control.

Q: With `COC1C(/C=C/C(C)=O)OC2OC(C)(C)OC21` (configuration not stated) as the compound, how does the T/C (dose: 75.0 mg/kg/injection, schedule: Q04DX004 (sc), vehicle: suspension in saline) read?
A: Its T/C is 74 % of control.

Q: What about the T/C (dose: 150.0 mg/kg/injection, schedule: Q04DX004 (sc), vehicle: suspension in saline) of the same compound?
A: The T/C was 106 % of control.

Q: What about the T/C (dose: 300.0 mg/kg/injection, schedule: Q04DX004 (sc), vehicle: suspension in saline) of the same compound?
A: The T/C was 54 % of control.

Q: And the T/C (dose: 600.0 mg/kg/injection, schedule: Q04DX004 (sc), vehicle: suspension in saline)?
A: The T/C was 20 % of control.

Q: For `C[C@@]1(CO)[C@H](O)CC[C@@]2(C)[C@H]1CC[C@H]1C[C@@H]3C[C@@]12CC[C@@]3(O)COC(=O)CN`, which T/C (dose: 8.0 mg/kg/injection, schedule: Q04DX004 (sc), vehicle: saline + alcohol) is on record?
A: Its T/C is 226 % of control.

Q: What about the T/C (dose: 16.0 mg/kg/injection, schedule: Q04DX004 (sc), vehicle: saline + alcohol) of the same compound?
A: Its T/C is 106 % of control.

Q: And the T/C (dose: 32.0 mg/kg/injection, schedule: Q04DX004 (sc), vehicle: saline + alcohol)?
A: The T/C was 94 % of control.

Q: And the T/C (dose: 64.0 mg/kg/injection, schedule: Q04DX004 (sc), vehicle: saline + alcohol)?
A: The T/C was 218 % of control.

Q: And the T/C (dose: 500.0 micrograms/kg/injection, schedule: Q04DX004 (sc), vehicle: saline + alcohol)?
A: Its T/C is 97 % of control.

Q: What about the T/C (dose: 1000.0 micrograms/kg/injection, schedule: Q04DX004 (sc), vehicle: saline + alcohol) of the same compound?
A: The T/C was 108 % of control.

Q: And the T/C (dose: 2000.0 micrograms/kg/injection, schedule: Q04DX004 (sc), vehicle: saline + alcohol)?
A: The T/C was 101 % of control.

Q: And the T/C (dose: 4000.0 micrograms/kg/injection, schedule: Q04DX004 (sc), vehicle: saline + alcohol)?
A: The T/C was 73 % of control.

Q: How did the T/C (dose: 12.5 mg/kg/injection, schedule: Q04DX004 (sc), vehicle: saline) turn out when `Brc1c(NC2=NCCN2)ccc2nccnc12` was run?
A: The T/C was 113 % of control.

Q: And the T/C (dose: 25.0 mg/kg/injection, schedule: Q04DX004 (sc), vehicle: saline)?
A: The T/C was 92 % of control.

Q: What about the T/C (dose: 50.0 mg/kg/injection, schedule: Q04DX004 (sc), vehicle: saline) of the same compound?
A: Its T/C is 52 % of control.

Q: What about the T/C (dose: 100.0 mg/kg/injection, schedule: Q04DX004 (sc), vehicle: saline) of the same compound?
A: Its T/C is 93 % of control.

Q: What about the T/C (dose: 200.0 mg/kg/injection, schedule: Q04DX004 (sc), vehicle: saline) of the same compound?
A: The T/C was 91 % of control.

Q: What about the T/C (dose: 400.0 mg/kg/injection, schedule: Q04DX004 (sc), vehicle: saline) of the same compound?
A: The T/C was 79 % of control.

Q: Which results are given for `CCCCCc1cc(/C=C2/N=C(c3ccc[nH]3)C=C2OC)[nH]c1C`?
A: T/C (dose: 4.0 mg/kg/injection, schedule: Q04DX004 (sc), vehicle: saline with Tween-80): 81 % of control; T/C (dose: 8.0 mg/kg/injection, schedule: Q04DX004 (sc), vehicle: saline with Tween-80): 68 % of control; T/C (dose: 16.0 mg/kg/injection, schedule: Q04DX004 (sc), vehicle: saline with Tween-80): 55 % of control and 72 % of control; T/C (dose: 32.0 mg/kg/injection, schedule: Q04DX004 (sc), vehicle: saline with Tween-80): 76 % of control

Q: Which T/C (dose: 12.5 mg/kg/injection, schedule: Q04DX004 (sc), vehicle: other) does the source give for `COC(=O)NC1C(C)OC(OC2C/C=C(/C)C3C=CC4C(OC5CC(OC6CCC(OC7CC(O)C(OC8CCC(O)C(C)O8)C(C)O7)C(C)O6)C(OC(C)=O)C(C)O5)C(C)CC(C)C4C3(C)/C(O)=C3/C(=O)OC4(CC(C=O)=CC(O)C4/C=C\2C)C3=O)CC1(C)[N+](=O)[O-]` (configuration not stated) here?
A: The T/C was 92 % of control.

Q: And the T/C (dose: 25.0 mg/kg/injection, schedule: Q04DX004 (sc), vehicle: other)?
A: Its T/C is 103 % of control.

Q: And the T/C (dose: 50.0 mg/kg/injection, schedule: Q04DX004 (sc), vehicle: other)?
A: The T/C was 51 % of control.

Q: Which T/C (dose: 37.5 mg/kg/injection, schedule: Q04DX004 (sc), vehicle: water) does the source give for `CNc1n[n+](-c2ccccc2)no1` here?
A: Its T/C is 117 % of control.

Q: What about the T/C (dose: 75.0 mg/kg/injection, schedule: Q04DX004 (sc), vehicle: water) of the same compound?
A: Its T/C is 115 % of control.

Q: With `Cc1cc2cc3cc(C)c(N)cc3nc2cc1N` as the compound, how does the T/C [2] read?
A: Its T/C is 86 % of control.

Q: What about the T/C [1] of the same compound?
A: The T/C was 90 % of control.

Q: And the T/C [3]?
A: The T/C was 82 % of control.

Q: What about the T/C (dose: 300.0 mg/kg/injection, schedule: Q04DX004 (sc), vehicle: saline with Tween-80) of the same compound?
A: The T/C was 89 % of control.

Q: And the T/C (dose: 400.0 mg/kg/injection, schedule: Q04DX004 (sc), vehicle: saline with Tween-80)?
A: Its T/C is 66 % of control.

Q: What about the T/C (dose: 600.0 mg/kg/injection, schedule: Q04DX004 (sc), vehicle: saline with Tween-80) of the same compound?
A: Its T/C is 21 % of control.

Q: And the T/C (dose: 1200.0 mg/kg/injection, schedule: Q04DX004 (sc), vehicle: saline with Tween-80)?
A: The T/C was 37 % of control.

Q: And the T/C (dose: 2400.0 mg/kg/injection, schedule: Q04DX004 (sc), vehicle: saline with Tween-80)?
A: The T/C was 45 % of control.

Q: How did the T/C (dose: 37.5 mg/kg/injection, schedule: Q04DX004 (sc), vehicle: saline with Tween-80) turn out when `CCC1CCCCN1C(=S)N/N=C(\C)c1ccccn1` (configuration not stated) was run?
A: The T/C was 59 % of control.

Q: What about the T/C (dose: 75.0 mg/kg/injection, schedule: Q04DX004 (sc), vehicle: saline with Tween-80) of the same compound?
A: The T/C was 26 % of control.

Q: Which results are given for `CCCCCCCCCCCCCCCCCC(=O)OCC(=O)OCC(=O)[C@]1(O)Cc2c(O)c3c(c(O)c2[C@@H](OC2CC(N)C(O)C(C)O2)C1)C(=O)c1c(OC)cccc1C3=O` (some centres not stated)?
A: T/C (dose: 3.0 mg/kg/injection, schedule: Q01DX010 (sc), vehicle: water): 56 % of control; T/C (dose: 6.0 mg/kg/injection, schedule: Q01DX010 (sc), vehicle: water): 47 % of control; T/C (dose: 7.5 mg/kg/injection, schedule: Q04DX004 (sc), vehicle: water): 86 % of control; T/C (dose: 12.0 mg/kg/injection, schedule: Q01DX010 (sc), vehicle: water): 59 % of control; T/C (dose: 15.0 mg/kg/injection, schedule: Q04DX004 (sc), vehicle: water): 96 % of control; T/C (dose: 30.0 mg/kg/injection, schedule: Q04DX004 (sc), vehicle: water): 38 % of control

Q: `Oc1ccccc1C=NCCC[N-]CCCN=Cc1ccccc1O.[Co]` was tested. Which T/C (dose: 25.0 mg/kg/injection, schedule: Q01DX010 (sc), vehicle: suspension in saline) did it give?
A: The T/C was 109 % of control.

Q: And the T/C (dose: 100.0 mg/kg/injection, schedule: Q01DX010 (sc), vehicle: suspension in saline)?
A: Its T/C is 73 % of control and 76 % of control.

Q: `CC(C#N)(C#N)N=Nc1ccc(Cl)cc1Cl` was tested. Which T/C [3] did it give?
A: Its T/C is 116 % of control.

Q: And the T/C (dose: 1600.0 mg/kg/injection, schedule: Q04DX004 (sc), vehicle: saline with Tween-80)?
A: The T/C was 106 % of control.
